Reference: patent publication US6288091A, “Antiherpes virus compounds and methods for their preparation and use” (Boehringer Ingelheim Ltd., priority 1999, dated 2001)
Read-outs that look alike come from different tables or passages of the source.

Experiments:
HCMV (strain AD169) = assay: Inhibition of HCMV replication, plaque reduction assay (PRA, Hs-68 cells); type: cell-based, Human Cytomegalovirus (HCMV); details: read-out: PRA CMV EC50
Method: C) Inhibition of Human Cytomegalovirus (HCMV) Replication
The effect of compounds on the replication of HCMV has been measured by using an ELISA-based assay (ELISA) and a plaque reduction assay (PRA).
Hs-68 cells (ATCC # CRL 1635) were seeded in 12-well plates at 83,000 cells/well in 1 mL of DMEM medium (Gibco Canada Inc.) supplemented with 10% fetal bovine serum (FBS, Gibco Canada Inc.). The plates were incubated for 3 days at 37° to allow the cells to reach 80-90% confluency prior to the assay.
The medium was removed from the cells by aspiration. The cells were then infected with approximately 50 PFU of HCMV (strain AD169, ATCC VR-538) in DMEM medium supplemented with 5% inactivated FBS (assay medium). The virus was allowed to adsorb to cells for 2 h at 37°. Following viral adsorption, the medium was removed from the wells by aspiration. The cells were then incubated with or without 1 mL of appropriate concentrations of test reagent in assay medium. After 4 days of incubation at 37°, the medium was exchanged with fresh medium containing test compound and 4 days later the cells were fixed with 1% aqueous formaldehyde and stained with a 2% crystal violet solution in 20% ethanol in water. Microscopic plaques were counted using a stereomicroscope. Drug effects were calculated as a percent reduction in the number of plaques in the presence of each drug concentration compared to the number observed in the absence of drug. Ganciclovir was used as a positive control in all experiments.
The EC50 values obtained according to this assay for certain thiazolyl derivatives of this invention are listed in the following tables under the heading PRA CMV.

HSV-1 strain F or KOS = assay: Inhibition of herpes simplex virus (HSV-1) replication in cell culture (BHK-21 cells, glycoprotein C ELISA); type: cell-based
Method: B) Inhibition of Herpes Simplex Virus (HSV-1) Replication in Cell Culture
BHK-21 cells clone 13 (ATCC CCL10) were incubated for two days in 850 cm^2 roller bottles (2×10^7 cells/bottle) with A-MEM medium (Gibco Canada Inc., Burlington, Ontario, Canada) supplemented with 8% (v/v) fetal bovine serum (FBS, Gibco Canada, Inc.). The cells were trypsinized and then 3,000 cells in 100 μL of fresh medium were transferred into each well of a 96-well microtiter plate. The cells were incubated at […] for a period of 3 days to reach a density of 50,000 cells per well. The cells were washed twice with 100 μL of α-MEM supplemented with 2% heat inactivated FBS and incubated for 1-2 hours in 100 μL of the same medium.
Thereafter, the cells were infected with HSV-1 strain F or KOS (multiplicity of infection =0.05 PFU/cell) in 50 μL of α-MEM supplemented with 2% heat inactivated FBS. Following one hour of virus absorption at 37°, the medium was removed and the cells were washed with α-MEM supplemented with 2% heat inactivated FBS (2×100 μL). The cells were incubated with or without 100 μL of the appropriate concentration of test reagent in α-MEM medium supplemented with 2% heat inactivated FBS. After 24 hours of incubation at 37°, the extent of viral replication was determined by an ELISA assay; for instance, the following assay that detects the late glycoprotein C of HSV-1.
Cells were fixed in the microtiter plate with 100 μL of 0.063% glutaraldehyde in phosphate buffered saline for 30 min at room temperature. The microtiter plate was then washed once with casein blocking solution and blocked with 200 μL of the same solution for one hour at room temperature. Thereafter, 100 μL of mAb C11 recognizing the glycoprotein C of HSV-1 (see E. Trybala et al., Journal of General Virology, 1994, 75, 743) was added to each well for two hours at room temperature. The plate was washed three times with phosphate buffered saline containing 0.05% polyoxyethylene (20) sorbitan monooleate. The cells were incubated with 100 μL of sheep anti-mouse IgG horseradish peroxidase for one hour at room temperature in the dark.
The plate was washed three times with 200 μL of the above-noted phosphate buffer saline preparation, and then once with 0.1 M sodium citrate (pH 4.5). Thereafter, 100 μL of orthophenylenediamine dihydrochloride (OPD, Gibco, Canada Inc.) was added to each well. The plate was agitated on a microplate shaker for 30 min in the dark. Color development was monitored at 450 nm using a microplate spectrophotometer.
SAS was used to calculate % inhibition of viral replication and to generate EC50 values.

HSV-1 helicase-primase = target: T1, HSV-1 helicase-primase (Human herpesvirus 1, UniProt P10189+P10236); assay: HSV-1 DNA-dependent ATPase assay (inhibition of HSV-1 helicase-primase); type: biochemical
T1 construct: made in house; host or cells: Sf21 insect cells triply infected with recombinant baculoviruses (UL5, UL8, UL52)
Source text: A) HSV-1 DNA-Dependent ATP Assay (an in Vitro Assay Based on the Inhibition of HSV-1 Helicase-primase).
HSV-1 helicase-primase holoenzyme was produced in triply infected Sf21 cells using recombinant baculoviruses expressing the UL5, UL8 and UL52 helicase-primase subunits, as described by S. Dracheva et al., J. Biol. Chem. 1995, 270, 14148. The crude enzyme was purified by ammonium sulfate precipitation, Source 15Q® chromatography and Sephacryl® S-300 HR gel filtration (both purification systems can be obtained from Pharmacia Biotech Inc., Montreal, Quebec, Canada), see S. Dracheva et al., supra.
The DNA-dependent ATPase assay, described by J. J. Crute et al., Nucleic Acids Res. 1988, 16, 6585, was modified and used to evaluate the capability of the compounds of Group 1-formula 1 to inhibit HSV-1 helicase-primase activity. The reaction mixtures (80 μL each) contained 40 mM 4-(2-hydroxyethyl)-1-piperazineethanesulfonic acid (HEPES, pH 7.5), 10% (v/v) glycerol, 5.5 mM MgCl2, 1 mM DL-dithiothreitol (DTT), 50 μg/mL acetylated bovine serum albumin, 3.3% (v/v) DMSO, 4 mM ATP, 25 μM single-stranded M13 DNA hybridized to double-tailed 68-mer oligonucleotide and 3 μg/mL HSV-1 helicase-primase. After incubation for 20 min at 34°, formation of inorganic phosphate from hydrolysis of ATP was monitored spectrophotometrically at 650 nm using acidic ammonium molybdate/malachite green reagent, P. A. Lanzetta et al., Anal. Biochem. 1979, 100, 95. DNA-dependent ATPase activity was calculated from the net absorbance change in the presence and absence of inhibition.

[1] = Human betaherpesvirus 5, AD169, Hs68, Group 1 Table 2 entries
[2] = Human betaherpesvirus 5, AD169, Hs68, Group 1 Table 3 entries
[3] = Human betaherpesvirus 5, AD169, Hs68, Group 1 Table 1 entries
[4] = Human betaherpesvirus 5, AD169, Hs68, Group 2 Table 1 entries
[5] = Human betaherpesvirus 5, AD169, Hs68, Group 1 Table 4 entries

T1 sequence (P10192 whole entry): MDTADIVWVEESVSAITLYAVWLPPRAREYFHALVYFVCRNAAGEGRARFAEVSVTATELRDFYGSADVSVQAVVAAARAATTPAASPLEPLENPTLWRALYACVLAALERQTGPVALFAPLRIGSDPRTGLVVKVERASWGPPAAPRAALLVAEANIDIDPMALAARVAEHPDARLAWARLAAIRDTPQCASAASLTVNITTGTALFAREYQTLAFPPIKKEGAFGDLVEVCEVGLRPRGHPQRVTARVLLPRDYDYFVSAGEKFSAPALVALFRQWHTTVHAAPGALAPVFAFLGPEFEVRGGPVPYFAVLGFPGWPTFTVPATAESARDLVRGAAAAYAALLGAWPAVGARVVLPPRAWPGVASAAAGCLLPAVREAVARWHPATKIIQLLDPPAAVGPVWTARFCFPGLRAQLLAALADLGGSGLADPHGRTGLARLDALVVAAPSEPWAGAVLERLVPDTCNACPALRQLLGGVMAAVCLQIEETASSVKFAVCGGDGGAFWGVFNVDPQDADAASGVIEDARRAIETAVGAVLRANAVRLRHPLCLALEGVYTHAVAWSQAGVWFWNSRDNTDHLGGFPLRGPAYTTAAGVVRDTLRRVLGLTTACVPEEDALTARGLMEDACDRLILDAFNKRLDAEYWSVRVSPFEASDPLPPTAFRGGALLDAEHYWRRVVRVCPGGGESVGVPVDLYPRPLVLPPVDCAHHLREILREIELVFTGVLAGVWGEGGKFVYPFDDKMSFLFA
T1 sequence (P10236 whole entry): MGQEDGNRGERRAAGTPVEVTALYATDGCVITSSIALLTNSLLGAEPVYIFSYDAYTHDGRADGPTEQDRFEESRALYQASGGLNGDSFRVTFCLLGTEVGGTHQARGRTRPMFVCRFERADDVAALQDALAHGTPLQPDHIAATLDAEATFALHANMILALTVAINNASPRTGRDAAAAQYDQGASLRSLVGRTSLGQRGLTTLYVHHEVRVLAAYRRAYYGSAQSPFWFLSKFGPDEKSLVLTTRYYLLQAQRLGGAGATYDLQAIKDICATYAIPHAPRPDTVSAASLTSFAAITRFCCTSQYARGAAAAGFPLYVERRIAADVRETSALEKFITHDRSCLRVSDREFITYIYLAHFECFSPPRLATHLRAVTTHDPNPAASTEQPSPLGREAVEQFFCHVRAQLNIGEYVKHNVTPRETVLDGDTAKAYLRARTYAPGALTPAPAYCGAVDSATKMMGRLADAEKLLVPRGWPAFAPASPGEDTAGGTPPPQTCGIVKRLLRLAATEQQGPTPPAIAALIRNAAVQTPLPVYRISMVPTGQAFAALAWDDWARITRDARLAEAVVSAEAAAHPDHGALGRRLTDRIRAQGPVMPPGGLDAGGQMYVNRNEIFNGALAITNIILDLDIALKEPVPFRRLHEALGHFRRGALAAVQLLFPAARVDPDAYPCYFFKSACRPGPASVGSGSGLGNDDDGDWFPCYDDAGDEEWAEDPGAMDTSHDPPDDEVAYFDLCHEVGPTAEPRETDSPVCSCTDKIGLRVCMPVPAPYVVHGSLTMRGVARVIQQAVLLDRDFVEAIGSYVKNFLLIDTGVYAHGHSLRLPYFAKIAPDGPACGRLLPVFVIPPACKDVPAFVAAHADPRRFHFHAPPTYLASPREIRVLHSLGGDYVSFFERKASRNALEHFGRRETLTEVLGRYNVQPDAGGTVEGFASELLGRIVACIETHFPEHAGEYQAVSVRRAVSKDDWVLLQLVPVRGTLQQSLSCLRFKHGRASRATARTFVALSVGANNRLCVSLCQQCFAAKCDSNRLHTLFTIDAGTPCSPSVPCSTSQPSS
T1 sequence (P10189 whole entry): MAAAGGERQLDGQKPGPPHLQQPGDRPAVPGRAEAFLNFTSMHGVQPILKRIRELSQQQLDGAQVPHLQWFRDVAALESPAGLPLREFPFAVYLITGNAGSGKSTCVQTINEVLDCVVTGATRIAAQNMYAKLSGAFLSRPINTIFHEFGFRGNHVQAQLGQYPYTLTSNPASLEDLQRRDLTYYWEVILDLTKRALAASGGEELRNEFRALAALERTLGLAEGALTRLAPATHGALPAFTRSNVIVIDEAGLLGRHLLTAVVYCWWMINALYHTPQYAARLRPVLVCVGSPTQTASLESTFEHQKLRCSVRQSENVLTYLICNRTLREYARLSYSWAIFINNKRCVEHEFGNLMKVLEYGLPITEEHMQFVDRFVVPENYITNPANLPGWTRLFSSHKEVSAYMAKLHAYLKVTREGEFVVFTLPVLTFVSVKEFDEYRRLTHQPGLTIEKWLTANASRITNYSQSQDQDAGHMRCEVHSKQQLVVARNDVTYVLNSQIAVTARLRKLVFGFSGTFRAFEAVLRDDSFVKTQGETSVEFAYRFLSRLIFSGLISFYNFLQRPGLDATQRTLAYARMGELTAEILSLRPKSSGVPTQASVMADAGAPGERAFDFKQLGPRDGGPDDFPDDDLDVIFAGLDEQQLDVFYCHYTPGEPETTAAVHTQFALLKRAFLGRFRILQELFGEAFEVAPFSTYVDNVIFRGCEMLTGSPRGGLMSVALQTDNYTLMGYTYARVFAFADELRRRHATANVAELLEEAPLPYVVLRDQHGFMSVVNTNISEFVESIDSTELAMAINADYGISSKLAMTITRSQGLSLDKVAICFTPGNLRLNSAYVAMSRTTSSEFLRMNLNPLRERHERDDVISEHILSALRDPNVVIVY

Molecule `Nc1nc(-c2ccc(NC(=O)CCN(Cc3ccccc3)C(=O)c3cccnc3)cc2)cs1` [Example 6] has an EC50 (HCMV (strain AD169); [1]) of 22 µM and an EC50 (HSV-1 strain F or KOS; Human alphaherpesvirus 1, BHK-21, Group 1 Table 2 entries) of 4.8 µM.

With `C[C@H](c1ccccc1)N(CC(=O)Nc1ccc(-c2csc(NC(=O)OC(C)(C)C)n2)cc1)C(=O)c1ccncc1` [Example 24] the EC50 (HCMV (strain AD169); [2]) was 3.7 µM.

With `Nc1nc(-c2ccc(NC(=O)CN(Cc3ccccc3)C(=O)c3ccsc3)cc2)cs1` [Example 115] the EC50 (HCMV (strain AD169); [3]) was 49 µM.

`C[C@H](c1ccccc1)N(CC(=O)Nc1ccc(-c2csc(N)n2)cc1)C(=O)Cc1ccccn1` [Example 136] showed an EC50 (HCMV (strain AD169); [3]) of 31 µM and an IC50 (HSV-1 helicase-primase; Group 1 Table 1 entries) of 4.2 µM.

`NCC(=O)N(CC(=O)Nc1ccc(-c2csc(N)n2)cc1)Cc1ccccc1` [Example 71] was tested, and the EC50 (HCMV (strain AD169); [3]) was > 32 µM and the IC50 (HSV-1 helicase-primase; Group 1 Table 1 entries) was 30 µM.

`CCCCN(CC)C(=O)Nc1ccc(-c2csc(NC(=O)OC(C)(C)C)n2)cc1` [Example 31] showed an EC50 (HCMV (strain AD169); [4]) of 2 µM.

In the case of `CC(C)(C)NC(=O)Nc1nc(-c2ccc(NC(=O)CCN(Cc3ccccc3)Cc3ccccc3)cc2)cs1` [Example 2], the EC50 (HCMV (strain AD169); [5]) is reported as 1.5 µM.

Work on `C[C@H](c1ccccc1)N(CC(=O)Nc1ccc(-c2csc(NC(=O)OC(C)(C)C)n2)cc1)C(=O)C1CCCCC1` [Example 22] yielded an EC50 (HCMV (strain AD169); [2]) of 1.3 µM.

`Nc1nc(-c2ccc(NC(=O)CN(Cc3ccc(Cl)cc3)C(=O)C3CCCCC3)cc2)cs1` [Example 45] gave an EC50 (HCMV (strain AD169); [3]) of 5.5 µM, an EC50 (HSV-1 strain F or KOS; Human alphaherpesvirus 1, BHK-21, Group 1 Table 1 entries) of 0.001 µM and an IC50 (HSV-1 helicase-primase; Group 1 Table 1 entries) of 0.05 µM.

Molecule `CC(C)(C)OC(=O)Nc1nc(-c2ccc(NC(=O)CCN(Cc3ccccc3)Cc3ccccc3)cc2)cs1` [Example 1] has an EC50 (HCMV (strain AD169); [5]) of 1.6 µM.

With `CCCCN(CCO)C(=O)Nc1ccc(-c2csc(NC(=O)OC(C)(C)C)n2)cc1` [Example 32] the EC50 (HCMV (strain AD169); [4]) was 2 µM.

`CCCCN(CCCC)C(=O)Nc1ccc(-c2csc(Nc3cccnc3)n2)cc1` [Example 36] gave an EC50 (HCMV (strain AD169); [4]) of 3 µM.

`C[C@H](c1ccccc1)N(CC(=O)Nc1ccc(-c2csc(NC(=O)OC(C)(C)C)n2)cc1)C(=O)Cc1ccccn1` [Example 23] gave an EC50 (HCMV (strain AD169); [2]) of 2.8 µM.

With `C#CCNC(=O)Nc1ccc(-c2csc(N)n2)cc1` [Example 17] the EC50 (HCMV (strain AD169); [4]) was > 74 µM and the IC50 (HSV-1 helicase-primase; Group 2 Table 1 entries) was 33 µM.

`Nc1nc(-c2ccc(NC(=O)CN(Cc3ccc(F)cc3)C(=O)Cc3ccccn3)cc2)cs1` [Example 124] was tested, and the EC50 (HCMV (strain AD169); [3]) was 28 µM.

`C[C@@H](c1ccccc1)N(CC(=O)Nc1ccc(-c2csc(NC(=O)OC(C)(C)C)n2)cc1)C(=O)Cc1ccccn1` [Example 25] was tested, and the EC50 (HCMV (strain AD169); [2]) was 2.7 µM.

`Nc1nc(-c2ccc(NC(=O)CCN(CCN3CCCC3)Cc3ccccc3)cc2)cs1` [Example 27] was tested, and the EC50 (HCMV (strain AD169); [1]) was 15 µM.

`Cc1ccccc1CN(CC(=O)Nc1ccc(-c2csc(N)n2)cc1)C(=O)c1ccsc1` [Example 133] showed an EC50 (HCMV (strain AD169); [3]) of 17 µM.

`Nc1nc(-c2ccc(NC(=O)CN(Cc3ccccc3)C(=O)Cc3cccs3)cc2)cs1` [Example 116] was tested, and the EC50 (HCMV (strain AD169); [3]) was 19 µM.

`Nc1nc(-c2ccc(NC(=O)CN(Cc3cccc(F)c3)C(=O)Cc3ccccn3)cc2)cs1` [Example 126] was tested, and the EC50 (HCMV (strain AD169); [3]) was 35 µM.
